In patent US20250114345A1, “COMPOUNDS AND COMPOSITIONS AS CBP/P300 DEGRADERS AND USES THEREOF” (Oncopia Therapeutics, Inc. d/b/a/ SK Life Science Labs, priority 2023, published 2025):

What was measured:
CBP = target: T1, CBP (Homo sapiens, UniProt Q92793); assay: CBP degradation, HiBit technology in A549 CBP HiBit cells (24 h); assay type: cell-based; details: 24 hrs post treatment
T1 construct: host or cells: A549 CBP HiBit cells
In short: (§1)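 Endogenously HiBiT-tagged A549 cells are plated, left overnight, then treated with a compound dilution series at 37 °C and 5% CO2. At the set time, lytic detection buffer is added and plates are shaken 10 min at room temperature before luminescence is measured to derive potency and Dmax.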

p300 = target: T2, p300 (Homo sapiens, UniProt Q09472); assay: P300 degradation, HiBit technology in A549 P300 HiBit cells (2 h); assay type: cell-based; details: 2 hrs post treatment; for Dmax: A549, A549 P300 HiBit cells; for DC50: A549 P300 HiBit cells
T2 construct: host or cells: A549 P300 HiBit cells
In short: as §1

T1 sequence (Q92793 whole entry): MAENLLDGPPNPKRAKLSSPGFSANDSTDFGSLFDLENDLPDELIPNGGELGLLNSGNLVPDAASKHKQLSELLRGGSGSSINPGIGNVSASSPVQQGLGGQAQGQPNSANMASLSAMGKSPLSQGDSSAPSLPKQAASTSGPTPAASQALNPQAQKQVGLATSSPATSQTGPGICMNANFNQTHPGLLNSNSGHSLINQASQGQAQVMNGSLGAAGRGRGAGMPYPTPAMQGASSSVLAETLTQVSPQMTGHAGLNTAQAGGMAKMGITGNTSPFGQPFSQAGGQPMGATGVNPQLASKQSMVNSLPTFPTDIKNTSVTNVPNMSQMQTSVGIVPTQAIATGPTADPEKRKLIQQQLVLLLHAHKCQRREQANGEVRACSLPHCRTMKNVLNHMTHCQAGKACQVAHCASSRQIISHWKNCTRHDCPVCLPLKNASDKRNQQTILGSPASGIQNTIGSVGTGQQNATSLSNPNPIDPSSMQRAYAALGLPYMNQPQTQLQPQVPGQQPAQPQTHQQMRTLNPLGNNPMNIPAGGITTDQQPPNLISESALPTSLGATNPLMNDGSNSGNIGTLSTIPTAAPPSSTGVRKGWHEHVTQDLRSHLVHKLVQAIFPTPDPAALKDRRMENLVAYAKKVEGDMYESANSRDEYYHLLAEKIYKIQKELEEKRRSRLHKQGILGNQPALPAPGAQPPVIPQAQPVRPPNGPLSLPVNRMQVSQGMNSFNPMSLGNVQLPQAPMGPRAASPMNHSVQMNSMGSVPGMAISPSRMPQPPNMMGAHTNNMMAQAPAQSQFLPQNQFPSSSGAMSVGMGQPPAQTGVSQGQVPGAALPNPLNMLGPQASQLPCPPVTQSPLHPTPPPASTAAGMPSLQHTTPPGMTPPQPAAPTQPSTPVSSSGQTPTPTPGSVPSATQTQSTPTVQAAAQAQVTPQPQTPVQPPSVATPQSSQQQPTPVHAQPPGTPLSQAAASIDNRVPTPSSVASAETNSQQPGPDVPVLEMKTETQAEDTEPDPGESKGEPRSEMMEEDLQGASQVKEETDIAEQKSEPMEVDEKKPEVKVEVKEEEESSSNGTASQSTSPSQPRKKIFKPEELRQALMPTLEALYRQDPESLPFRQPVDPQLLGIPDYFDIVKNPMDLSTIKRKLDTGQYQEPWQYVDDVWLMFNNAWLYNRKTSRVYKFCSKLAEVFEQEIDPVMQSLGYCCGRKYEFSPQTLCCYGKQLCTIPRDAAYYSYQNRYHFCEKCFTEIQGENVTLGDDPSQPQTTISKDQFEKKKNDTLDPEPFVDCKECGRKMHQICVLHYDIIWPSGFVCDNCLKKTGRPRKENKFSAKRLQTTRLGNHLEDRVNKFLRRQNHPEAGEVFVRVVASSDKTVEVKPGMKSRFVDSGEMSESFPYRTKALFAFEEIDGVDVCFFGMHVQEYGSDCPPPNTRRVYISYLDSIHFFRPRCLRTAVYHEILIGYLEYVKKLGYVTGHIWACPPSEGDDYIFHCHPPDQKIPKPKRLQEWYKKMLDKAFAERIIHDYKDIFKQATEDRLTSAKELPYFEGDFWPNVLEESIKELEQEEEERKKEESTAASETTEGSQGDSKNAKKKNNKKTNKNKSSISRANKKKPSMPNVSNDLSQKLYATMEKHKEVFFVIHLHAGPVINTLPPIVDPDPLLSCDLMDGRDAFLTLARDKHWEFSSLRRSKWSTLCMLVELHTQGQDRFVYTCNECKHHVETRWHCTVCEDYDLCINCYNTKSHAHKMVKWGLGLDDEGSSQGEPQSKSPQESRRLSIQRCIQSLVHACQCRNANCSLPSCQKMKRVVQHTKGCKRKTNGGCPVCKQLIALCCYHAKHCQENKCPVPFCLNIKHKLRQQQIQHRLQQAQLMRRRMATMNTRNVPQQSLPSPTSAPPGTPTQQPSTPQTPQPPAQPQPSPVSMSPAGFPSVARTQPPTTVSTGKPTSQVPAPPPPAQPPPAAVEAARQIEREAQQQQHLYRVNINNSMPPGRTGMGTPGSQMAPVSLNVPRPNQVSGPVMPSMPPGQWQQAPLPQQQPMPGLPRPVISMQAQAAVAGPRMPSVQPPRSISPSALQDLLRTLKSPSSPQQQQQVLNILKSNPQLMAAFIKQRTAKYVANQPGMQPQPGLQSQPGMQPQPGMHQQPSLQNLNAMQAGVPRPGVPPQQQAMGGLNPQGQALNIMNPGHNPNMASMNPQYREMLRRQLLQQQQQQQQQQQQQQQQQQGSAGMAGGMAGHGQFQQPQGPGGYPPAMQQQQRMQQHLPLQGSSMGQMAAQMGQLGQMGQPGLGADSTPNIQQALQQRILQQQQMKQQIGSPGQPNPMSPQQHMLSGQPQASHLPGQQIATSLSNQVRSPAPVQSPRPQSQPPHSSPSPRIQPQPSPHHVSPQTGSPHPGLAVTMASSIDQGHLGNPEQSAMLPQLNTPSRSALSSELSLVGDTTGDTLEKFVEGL
T2 sequence (Q09472 whole entry): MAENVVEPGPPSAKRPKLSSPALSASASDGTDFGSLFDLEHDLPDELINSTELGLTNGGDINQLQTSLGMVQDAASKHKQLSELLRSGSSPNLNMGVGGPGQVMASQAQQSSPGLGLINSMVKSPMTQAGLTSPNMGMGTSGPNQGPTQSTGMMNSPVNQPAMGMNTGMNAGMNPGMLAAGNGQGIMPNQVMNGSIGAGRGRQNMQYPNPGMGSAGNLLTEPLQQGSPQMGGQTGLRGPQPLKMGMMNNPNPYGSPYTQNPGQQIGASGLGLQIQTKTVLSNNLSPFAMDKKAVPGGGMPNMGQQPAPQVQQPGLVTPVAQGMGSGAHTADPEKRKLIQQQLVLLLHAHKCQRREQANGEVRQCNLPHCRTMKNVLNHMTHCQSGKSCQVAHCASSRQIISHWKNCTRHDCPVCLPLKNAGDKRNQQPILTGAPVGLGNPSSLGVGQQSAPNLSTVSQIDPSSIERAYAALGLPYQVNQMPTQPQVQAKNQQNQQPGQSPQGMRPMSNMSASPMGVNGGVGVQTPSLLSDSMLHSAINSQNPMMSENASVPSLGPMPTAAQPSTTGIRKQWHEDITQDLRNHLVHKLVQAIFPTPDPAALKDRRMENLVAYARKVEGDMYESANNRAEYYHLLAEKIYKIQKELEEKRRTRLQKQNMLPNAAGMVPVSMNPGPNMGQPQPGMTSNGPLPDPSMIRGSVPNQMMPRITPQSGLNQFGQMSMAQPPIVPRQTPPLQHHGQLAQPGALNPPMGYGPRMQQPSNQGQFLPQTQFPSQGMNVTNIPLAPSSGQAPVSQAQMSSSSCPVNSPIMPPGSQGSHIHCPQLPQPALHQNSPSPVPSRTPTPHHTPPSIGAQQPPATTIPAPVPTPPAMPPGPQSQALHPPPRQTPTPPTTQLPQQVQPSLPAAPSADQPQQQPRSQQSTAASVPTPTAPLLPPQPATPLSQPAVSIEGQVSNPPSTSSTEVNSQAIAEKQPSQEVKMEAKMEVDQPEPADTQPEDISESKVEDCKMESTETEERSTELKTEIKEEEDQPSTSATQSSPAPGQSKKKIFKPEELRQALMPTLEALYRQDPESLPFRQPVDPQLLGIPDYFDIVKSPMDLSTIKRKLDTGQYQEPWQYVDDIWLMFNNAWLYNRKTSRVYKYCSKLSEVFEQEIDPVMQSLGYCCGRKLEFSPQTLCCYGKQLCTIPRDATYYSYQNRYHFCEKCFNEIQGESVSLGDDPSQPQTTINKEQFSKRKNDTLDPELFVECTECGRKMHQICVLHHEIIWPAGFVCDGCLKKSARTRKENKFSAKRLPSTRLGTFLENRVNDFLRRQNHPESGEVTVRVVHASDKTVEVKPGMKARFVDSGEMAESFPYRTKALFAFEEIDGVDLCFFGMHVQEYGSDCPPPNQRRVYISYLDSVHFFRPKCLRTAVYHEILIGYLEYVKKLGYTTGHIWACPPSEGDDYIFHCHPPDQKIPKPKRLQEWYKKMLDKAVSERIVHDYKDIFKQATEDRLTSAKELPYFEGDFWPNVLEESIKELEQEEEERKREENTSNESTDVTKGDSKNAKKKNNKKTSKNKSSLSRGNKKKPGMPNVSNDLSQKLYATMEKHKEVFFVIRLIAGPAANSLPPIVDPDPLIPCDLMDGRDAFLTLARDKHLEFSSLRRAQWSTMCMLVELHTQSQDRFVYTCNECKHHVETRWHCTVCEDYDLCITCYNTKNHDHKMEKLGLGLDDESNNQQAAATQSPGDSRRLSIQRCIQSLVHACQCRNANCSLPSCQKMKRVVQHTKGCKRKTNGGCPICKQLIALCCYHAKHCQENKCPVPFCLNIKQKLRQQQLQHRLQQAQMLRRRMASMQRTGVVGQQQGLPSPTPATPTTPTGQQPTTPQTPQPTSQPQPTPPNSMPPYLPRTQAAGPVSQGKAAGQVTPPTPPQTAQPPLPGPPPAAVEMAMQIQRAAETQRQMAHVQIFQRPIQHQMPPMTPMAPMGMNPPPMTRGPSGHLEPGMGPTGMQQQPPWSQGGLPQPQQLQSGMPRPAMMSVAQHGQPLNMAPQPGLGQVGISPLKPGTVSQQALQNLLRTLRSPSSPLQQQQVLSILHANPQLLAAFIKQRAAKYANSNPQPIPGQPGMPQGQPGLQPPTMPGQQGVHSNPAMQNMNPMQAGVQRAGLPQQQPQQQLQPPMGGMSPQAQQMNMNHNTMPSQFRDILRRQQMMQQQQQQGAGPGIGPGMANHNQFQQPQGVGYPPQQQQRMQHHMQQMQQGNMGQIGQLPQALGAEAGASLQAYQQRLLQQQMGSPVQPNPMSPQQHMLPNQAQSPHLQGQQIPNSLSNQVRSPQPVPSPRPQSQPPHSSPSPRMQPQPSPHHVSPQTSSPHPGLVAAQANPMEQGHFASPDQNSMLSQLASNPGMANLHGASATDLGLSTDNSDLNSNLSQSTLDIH

DC50 (CBP)	Dmax (CBP)	Dmax (p300)	DC50 (p300)	Compound
> 1000 nM	< 20%	> 80%	1 to 9.9 nM	Cc1cc2c(N3CCCc4nc(-c5ccc(C(=O)NCC#Cc6cc7c([C@@H]8CCC(=O)NC8=O)cccc7o6)nc5)ncc43)cc(C3CCOCC3)nc2n(C)c1=O [Example B49, (S)-5-(5-(6,8-dimethyl-7-oxo-2-(tetrahydro-2H-pyran-4-yl)-7,8-dihydro-1,8-naphthyridin-4-yl)-5,6,7,8-tetrahydropyrido[3,2-d]pyrimidin-2-yl)-N-(3-(4-(2,6-dioxopiperidin-3-yl)benzofuran-2-yl)prop-2-yn-1-yl)picolinamide]
> 1000 nM	< 20%	40 to 59%	1 to 9.9 nM	Cc1cc2c(N3CCCc4nc(-c5ccc(C(=O)NCC#Cc6ccc7occ(C8CCC(=O)NC8=O)c7c6)nc5)ncc43)nc(N3CCOCC3)nc2n(C)c1=O (stereo not drawn) [Example B51, 5-(5-(6,8-dimethyl-2-morpholino-7-oxo-7,8-dihydropyrido[2,3-d]pyrimidin-4-yl)-5,6,7,8-tetrahydropyrido[3,2-d]pyrimidin-2-yl)-N-(3-(3-(2,6-dioxopiperidin-3-yl)benzofuran-5-yl)prop-2-yn-1-yl)picolinamide]
> 1000 nM	< 20%	> 80%	< 1 nM	Cc1cc2c(N3CCCc4nc(-c5ccc(C(=O)NCC#Cc6ccc7occ(C8CCC(=O)NC8=O)c7c6)nc5)ncc43)cc(C3CCOCC3)cc2n(C)c1=O (stereo not drawn) [Example B53, 5-(5-(1,3-dimethyl-2-oxo-7-(tetrahydro-2H-pyran-4-yl)-1,2-dihydroquinolin-5-yl)-5,6,7,8-tetrahydropyrido[3,2-d]pyrimidin-2-yl)-N-(3-(3-(2,6-dioxopiperidin-3-yl)benzofuran-5-yl)prop-2-yn-1-yl)picolinamide]
> 1000 nM	< 20%	> 80%	< 1 nM	Cc1cc2c(N3CCCc4nc(-c5ccc(C(=O)NCC#Cc6ccc7occ([C@H]8CCC(=O)NC8=O)c7c6)nc5)ncc43)cc(C3CCOCC3)cc2n(C)c1=O [Example B54, (R)-5-(5-(1,3-dimethyl-2-oxo-7-(tetrahydro-2H-pyran-4-yl)-1,2-dihydroquinolin-5-yl)-5,6,7,8-tetrahydropyrido[3,2-d]pyrimidin-2-yl)-N-(3-(3-(2,6-dioxopiperidin-3-yl)benzofuran-5-yl)prop-2-yn-1-yl)picolinamide]
> 1000 nM	< 20%	> 80%	1 to 9.9 nM	Cc1cc2c(N3CCCc4nc(-c5ccc(C(=O)NCC#Cc6cc7c(C8CCC(=O)NC8=O)cccc7o6)nc5)ncc43)cc(C(C)C)nc2n(C)c1=O (stereo not drawn) [Example B56, N-(3-(4-(2,6-dioxopiperidin-3-yl)benzofuran-2-yl)prop-2-yn-1-yl)-5-(5-(2-isopropyl-6,8-dimethyl-7-oxo-7,8-dihydro-1,8-naphthyridin-4-yl)-5,6,7,8-tetrahydropyrido[3,2-d]pyrimidin-2-yl)picolinamide]
> 1000 nM	< 20%	> 80%	1 to 9.9 nM	Cc1cc2c(N3CCOc4cc(-c5ccc(C(=O)NCC#Cc6ccc7occ(C8CCC(=O)NC8=O)c7c6)nc5)c(F)cc43)cc(N3CC4(COC4)C3)cc2n(C)c1=O (stereo not drawn) [Example B58, 5-(4-(1,3-dimethyl-2-oxo-7-(2-oxa-6-azaspiro[3.3]heptan-6-yl)-1,2-dihydro-quinolin-5-yl)-6-fluoro-3,4-dihydro-2H-benzo[b][1,4]oxazin-7-yl)-N-(3-(3-(2,6-dioxopiperidin-3-yl)benzofuran-5-yl)prop-2-yn-1-yl)picolinamide]
> 1000 nM	< 20%	> 80%	1 to 9.9 nM	Cc1cc(-c2ncc(N(C)c3cc(C4CCOCC4)cc4c3cc(C)c(=O)n4C)cn2)cnc1C(=O)NCC#Cc1cc2c(C3CCC(=O)NC3=O)cccc2o1 (stereo not drawn) [Example B59, 5-(5-((1,3-dimethyl-2-oxo-7-(tetrahydro-2H-pyran-4-yl)-1,2-dihydroquinolin-5-yl) (methyl)amino)pyrimidin-2-yl)-N-(3-(4-(2,6-dioxopiperidin-3-yl)benzofuran-2-yl)prop-2-yn-1-yl)-3-methylpicolinamide]

Second part, the compound before the results:

Compound	DC50 (CBP)	Dmax (CBP)	Dmax (p300)	DC50 (p300)
Cc1cc2c(N3CCCc4nc(-c5ccc(C(=O)NCC#Cc6cc7c([C@@H]8CCC(=O)NC8=O)cccc7o6)nc5)ncc43)cc(C3CCOCC3)cc2n(C)c1=O [Example B39, (S)-5-(5-(1,3-dimethyl-2-oxo-7-(tetrahydro-2H-pyran-4-yl)-1,2-dihydroquinolin-5-yl)-5,6,7,8-tetrahydropyrido[3,2-d]pyrimidin-2-yl)-N-(3-(4-(2,6-dioxopiperidin-3-yl)benzofuran-2-yl)prop-2-yn-1-yl)picolinamide]	> 1000 nM	< 20%	> 80%	1 to 9.9 nM
Cc1cc(-c2ncc3c(n2)CCCN3c2cc(C3CCOCC3)cc3c2cc(C)c(=O)n3C)cnc1C(=O)NCC#Cc1ccc2occ(C3CCC(=O)NC3=O)c2c1 (stereo not drawn) [Example B42, 5-(5-(1,3-dimethyl-2-oxo-7-(tetrahydro-2H-pyran-4-yl)-1,2-dihydroquinolin-5-yl)-5,6,7,8-tetrahydropyrido[3,2-d]pyrimidin-2-yl)-N-(3-(3-(2,6-dioxopiperidin-3-yl)benzofuran-5-yl)prop-2-yn-1-yl)-3-methylpicolinamide]	> 1000 nM	< 20%	60 to 79%	1 to 9.9 nM
Cc1cc2c(N3CCCc4nc(-c5ccc(C(=O)NCC#Cc6cc7c(C8CCC(=O)NC8=O)cccc7o6)nc5)ncc43)cc(C3CCOCC3)nc2n(C)c1=O (stereo not drawn) [Example B47, 5-(5-(6,8-dimethyl-7-oxo-2-(tetrahydro-2H-pyran-4-yl)-7,8-dihydro-1,8-naphthyridin-4-yl)-5,6,7,8-tetrahydropyrido[3,2-d]pyrimidin-2-yl)-N-(3-(4-(2,6-dioxopiperidin-3-yl)benzofuran-2-yl)prop-2-yn-1-yl)picolinamide]	> 1000 nM	< 20%	> 80%	< 1 nM
Cc1cc2c(N3CCCc4nc(-c5ccc(C(=O)NCC#Cc6cc7c([C@H]8CCC(=O)NC8=O)cccc7o6)nc5)ncc43)cc(C3CCOCC3)nc2n(C)c1=O [Example B48, (R)-5-(5-(6,8-dimethyl-7-oxo-2-(tetrahydro-2H-pyran-4-yl)-7,8-dihydro-1,8-naphthyridin-4-yl)-5,6,7,8-tetrahydropyrido[3,2-d]pyrimidin-2-yl)-N-(3-(4-(2,6-dioxopiperidin-3-yl)benzofuran-2-yl)prop-2-yn-1-yl)picolinamide]	100 to 999 nM	< 20%	> 80%	< 1 nM
Cc1cc2c(N3CCCc4nc(-c5ccc(C(=O)NCC#Cc6ccc7occ([C@@H]8CCC(=O)NC8=O)c7c6)nc5)ncc43)cc(C3CCOCC3)cc2n(C)c1=O [Example B55, (S)-5-(5-(1,3-dimethyl-2-oxo-7-(tetrahydro-2H-pyran-4-yl)-1,2-dihydroquinolin-5-yl)-5,6,7,8-tetrahydropyrido[3,2-d]pyrimidin-2-yl)-N-(3-(3-(2,6-dioxopiperidin-3-yl)benzofuran-5-yl)prop-2-yn-1-yl)picolinamide]	> 1000 nM	< 20%	> 80%	1 to 9.9 nM
